Laboratory results as given in patent EP1829539A2, “A method for treating tension-type headache” (priority 1996, dated 1998).
Structures can show the parent of a compound that is named as a salt.

Tests used:
[1] = test system: migraine; conditions: in vivo; cited from earlier work
[2] = test system: tension-type headache; conditions: Brennum et al. 1992, 1996; cited from earlier work
[3] = test system: patients with chronic tension-type headache; experiment: Open labelled pilot study of prophylactic Dextromethorphan in chronic tension-type headache; type: in vivo, human
Text: Five patients with a diagnosis of chronic tension-type headache according to the International Headache Society (Headache Classification Committee 1988) were recruited from the outpatient headache clinic at Glostrup Hospital. There were 2 males and 3 females, and the mean age was 45.4 years (range 39-48). The mean life time duration of chronic tension-type headache was 12.2 years (range 4-25). One patient had coexisting but infrequent migraine. Exclusion criteria were: daily major medication (including prophylactic headache therapy); abuse of analgesics or alcohol; serious somatic or psychiatric diseases including depression.
Using an open labelled design, patients fulfilled a diagnostic headache diary during at least 4 weeks run-in period to ensure the diagnostic criteria. Thereafter, the patients received Dextromethorphan (Dexofan®) tablets at 30 mg each, three times per day. The treatment period lasted 4 weeks, and during this period patients were asked to continue with headache diaries, and record headache intensity, frequency, duration, any medication taken and any possible adverse events. At a follow up visit at day 29-32, diaries were collected and possible adverse events and evaluation of the treatment were recorded. Due to the restricted number of patients, no statistical analysis were done. The efficacy parameters were headache intensity, frequency and duration, and intake of simple analgesics. Mean values from the run-in period were compared to those obtained during the treatment period.

[4] = test system: patients with chronic tension-type headache; experiment: Double-blind crossover study of intravenous L-NMMA versus placebo in chronic tension-type headache; type: in vivo, human
Procedure: Five patients with coexisting infrequent migraine (≤ one day/month) were accepted. […] At screening, a full physical and neurological examination, including 12-lead ECG were carried out. Blood samples for routine haematological and biochemical testing, and urine sample for urinanalysis were taken. The patients were not allowed to take analgesics 12 hours prior to the treatment. […] All patients gave written informed consent to participate in the study, which was approved by the local ethics committee and conducted in accordance with the Declaration of Helsinki.
Using a double-blind crossover design, the patients were randomised to receive 6 mg/kg L-NMMA (Clinalfa, Switzerland) or placebo (isotone glucose) on two days with a typical episode of tension-type headache separated by at least one week. Randomisation (Med.Stat) and drug preparation were performed by staff not involved in the study. The medication was given over 15 minutes into an antecubital vein (Braun Perfusor). The following parameters were measured at baseline and 15, 30, 60 and 120 minutes post administration: headache intensity on a 100-mm Visual Analog Scale (VAS) (0 - no headache and 100 - worst imaginable headache) and on a Verbal Rating Scale (VRS) from 0-10 (0 - no headache; 5 - moderate headache; 10 - worst imaginable headache). Blood pressure and pulse rate were measured 5 minutes prior to administration of treatment and at 5, 10, 15, 20, 25, 30, 60, 90 and 120 minutes post administration. Twelve-lead ECG was monitored continuously. Any adverse events were recorded. Patients with unrelieved headache at 120 minutes post treatment were allowed to take rescue medication. All patients were asked to record details of the following on a diary card at 4, 8, 12, 16, 20 and 24 hours post administration: headache intensity on VRS, any medication taken and adverse events. Between 4-7 days after each treatment, the patients returned to the clinic, the diary cards were collected and any adverse events were noted.
The secondary endpoints were reduction of pain intensity at 30, 60, 90 and 120 minutes post dosing on VAS and VRS compared to pre-treatment pain score within each treatment. Comparison of pain intensity on VAS, blood pressure and pulse rate over time between treatments were performed with ANOVA. Paired-Samples T Test was used to compare pre-treatment pain score on VAS with pain score at 30, 60, 90, 120 minutes post dosing within each treatment. […] These sums of differences for each treatment were compared by Wilcoxon Signed Rank test. Five percent was accepted as level of significance.

[5] = test system: GABA A; conditions: binding studies; cited from earlier work
[6] = test system: patients with chronic tension-type headache; experiment: Open labelled pilot study of prophylactic Gabapentin in chronic tension-type headache; type: in vivo, human
Text: Three patients with a diagnosis of chronic tension-type headache according to the International Headache Society (Headache Classification Committee 1988) were recruited from the outpatient headache clinic at Glostrup Hospital. The patients were males with a mean age of 42 years (range 35-49). The mean life time duration of chronic tension-type headache was 16 years (range 7-21). […] Exclusion criteria were: daily major medication (including prophylactic headache therapy); abuse of analgesics or alcohol; serious somatic or psychiatric diseases including depression.
Using an open labelled design, patients fulfilled a diagnostic headache diary during at least 4 weeks run-in period to ensure the diagnostic criteria. Thereafter, the patients received Gabapentin (Neurontin®) tablets, initially 300 mg (one tablet) per day on day one, increasing with 300 mg (1 tablet) per day to 900 mg (3 tablets) on day 3. The treatment period lasted 4 weeks, and during this period patients were asked to continue with headache diaries, and record headache intensity, frequency, duration, any medication taken and any possible adverse events. At a follow up visit at day 29-32, diaries were collected and any adverse events and evaluation of the treatment were recorded. Due to the low number of patients, no statistical analysis were done. The primary efficacy parameters were headache intensity, frequency and duration, and the mean values from the run-in period were compared to those obtained during the treatment period.

[7] = test system: alpha-2-subunit of a calcium channel; conditions: Gee et al. 1996; cited from earlier work
[8] = 0-10 VAS intensity scale, mean, before treatment
[9] = 100-mm VAS, 6 mg/kg L-NMMA i.v. over 15 minutes, mean (SD), p < 0.05 vs pretreatment

In the case of `CNS(=O)(=O)Cc1ccc2[nH]cc(CCN(C)C)c2c1` [sumatriptan], the Efficacy in migraine [1] is listed as “highly effective” and the “Efficacy in tension-type headache” value [2] is listed as “not effective to a clinically relevant extent”.
In the case of `COc1ccc2c(c1)[C@]13CCCC[C@@H]1[C@H](C2)N(C)CC3` [Dextromethorphan], the “Intensity of headache during active treatment” value ([3]; 0-10 VAS intensity scale, mean) is reported as 3.6, the “Intensity of headache during the run-in period” value [3, 8] is reported as 4.4 and the “Frequency of headache during run-in” value ([3]; before treatment) is reported as 28 days per 4 weeks period. The “Mean intake of analgesics during run-in period” value ([3]; before treatment) was 1.8 dose per day, the “Patients reporting a marked effect” value ([3]; considerable relief of headache intensity and duration within very few days, of 5 patients) was “Two” and the “Frequency of headache during active treatment” value ([3]; in vivo) was 27 days per 4 weeks period. The “Mean intake of analgesics during active treatment” value ([3]; in vivo) was 0.5 dose per day, the “Patients reporting no effect at all” value ([3]; of 5 patients) was “two” and the “Patients reporting no side effects” value ([3]; of 5 patients) was “Four”. For the same compound, the “Patients with a slight relief of headache intensity” value ([3]; of 5 patients) was “one”, the “Patients with marked side effects with sedation” value ([3]; the patient with best clinical response, diminished after dose reduction to 40 mg per day) was “one” and the “Reduction of intensity of headache” value ([3]; treatment period (4 weeks, 30 mg three times per day) vs run-in, 5 patients) was 18%. For the same compound, the “Decrease of frequency of headache” value ([3]; treatment period vs run-in) was 4%, the “Decrease of intake of analgesics” value ([3]; treatment period vs run-in) was 72% and the “Reduction of duration of the individual headache episode” value ([3]; treatment period vs run-in) was 11%.
For `CNC(=N)NCCC[C@H](N)C(=O)O` [L-NMMA, L- N^G methyl arginine hydrochloride], the “Pain scores on VAS, 30 minutes post dosing” value [4, 9] was 38 ± 18, the “Pain scores on VAS, 60 minutes post dosing” value [4, 9] was 35 ± 18 and the “Pain scores on VAS, 90 minutes post dosing” value [4, 9] was 34 ± 21. The “Pain scores on VAS, 120 minutes post dosing” value [4, 9] was 33 ± 21, the “Pain scores on VAS before treatment (Baseline)” value ([4]; 100-mm VAS, pre-treatment value on the L-NMMA day, 16 patients, mean (SD)) was 49 ± 16 and the “Pain intensity on VRS compared with placebo” value ([4]; Verbal Rating Scale 0-10, sum of differences, Wilcoxon, p=0.02) was “significantly lower after treatment with L-NMMA than after treatment with placebo”. The “Withdrawal from the study because of side effects” value ([4]; in vivo) was “No patients withdrew from the study because of side effects”, the “Maximum decrease in pulse rate” value ([4]; occurred 10 minutes post dosing, 6 mg/kg i.v.) was 16 ± 2% and the “Maximum increase in mean arterial blood pressure (MAP)” value ([4]; occurred 15 minutes post dosing, 6 mg/kg i.v.) was 12 ± 2%. The “Patients reporting subjective symptoms in relation to the infusion” value ([4]; of 16 patients) was “Seven”, the “Subjective symptom: a feeling of tingling in arm (number of patients)” value ([4]; of 16 patients) was 1 and the “Subjective symptom: drowsiness (number of patients)” value ([4]; of 16 patients) was 1. The “Subjective symptom: dryness of the mouth (number of patients)” value ([4]; of 16 patients) was 3, the “Subjective symptom: exhaustion (number of patients)” value ([4]; of 16 patients) was 1 and the “Subjective symptom: nausea (number of patients)” value ([4]; of 16 patients) was 1. For the same compound, the “Subjective symptom: tiredness (number of patients)” value ([4]; of 16 patients) was 2, the “Patients who used simple analgesics as rescue medication” value ([4]; of 16 patients, 7 on placebo) was “Three” and the “Reduction of pain intensity (VAS) over time compared with placebo” value ([4]; primary endpoint, ANOVA, p=0.007, 16 patients, hydrochloride) was “reduced pain intensity (VAS) over time significantly more than placebo”.
For `NCC1(CC(=O)O)CCCCC1` [Gabapentin], the “Affinity for GABA A” value [5] is listed as “fail to show affinity”, the “Headache intensity during active treatment” value ([6]; 0-10 VAS intensity scale, mean, 4 weeks) is listed as 3.6 and the “Headache intensity during run-in period” value [6, 8] is listed as 5.5. For the same compound, the “Frequency of headache during run-in period” value ([6]; before treatment) was 23.5 days per 4 weeks, the “Mean daily intake of analgesics, run-in” value ([6]; before treatment) was 1.1 dose per day and the “Individual response, one patient” value ([6]; complete relief of the headache after 2 days treatment) was “excellent effect”. For the same compound, the “Side effects in the third patient” value ([6]; disappeared completely after cessation of the drug intake) was “sedation, vertigo and slight nausea”, the “Frequency of headache during the active treatment period” value ([6]; in vivo) was 13 days per 4 weeks and the “Mean daily intake of analgesics, active treatment” value ([6]; in vivo) was 0.3 dose per day. The “Individual response, third patient” value ([6]; on any of efficacy parameters) was “no significant effect”, the “Individual response, another patient” value ([6]; on headache intensity and frequency) was “moderate effect” and the “Decrease of headache intensity” value ([6]; treatment period (4 weeks, up to 900 mg per day) vs run-in, 3 patients) was 35%. For the same compound, the “Decrease of frequency of headache” value ([6]; treatment period vs run-in) was 45%, the “Decrease of mean daily intake of analgesics” value ([6]; treatment period vs run-in) was 72% and the “Reduction of duration of the individual headache episode” value ([6]; treatment period vs run-in) was 8%. For the same compound, the “Binding affinity to the alpha-2-subunit of a calcium channel” value [7] was “showed binding affinity”.
